From US20180215727A1, “LYSYL OXIDASE-LIKE 2 INHIBITORS AND USES THEREOF” (PharmAkea, Inc., priority 2015, published 2018)
Structures can show the parent of a compound that is named as a salt.

molecular target: T1, human LOXL2 (Homo sapiens, UniProt Q9Y4K0); assay: Human LOXL2 Amine Oxidase Activity Assay (Amplex Red fluorescence); format: biochemical; conditions: concentrated conditioned media from CHO cells stably expressing human LOXL2, test compound incubated 2 h at 37° C., pH8, DAP substrate
T1 construct: expressed in transfected cells; secreted protein in 10-20x concentrated conditioned media
T1 sequence (Q9Y4K0 26-774): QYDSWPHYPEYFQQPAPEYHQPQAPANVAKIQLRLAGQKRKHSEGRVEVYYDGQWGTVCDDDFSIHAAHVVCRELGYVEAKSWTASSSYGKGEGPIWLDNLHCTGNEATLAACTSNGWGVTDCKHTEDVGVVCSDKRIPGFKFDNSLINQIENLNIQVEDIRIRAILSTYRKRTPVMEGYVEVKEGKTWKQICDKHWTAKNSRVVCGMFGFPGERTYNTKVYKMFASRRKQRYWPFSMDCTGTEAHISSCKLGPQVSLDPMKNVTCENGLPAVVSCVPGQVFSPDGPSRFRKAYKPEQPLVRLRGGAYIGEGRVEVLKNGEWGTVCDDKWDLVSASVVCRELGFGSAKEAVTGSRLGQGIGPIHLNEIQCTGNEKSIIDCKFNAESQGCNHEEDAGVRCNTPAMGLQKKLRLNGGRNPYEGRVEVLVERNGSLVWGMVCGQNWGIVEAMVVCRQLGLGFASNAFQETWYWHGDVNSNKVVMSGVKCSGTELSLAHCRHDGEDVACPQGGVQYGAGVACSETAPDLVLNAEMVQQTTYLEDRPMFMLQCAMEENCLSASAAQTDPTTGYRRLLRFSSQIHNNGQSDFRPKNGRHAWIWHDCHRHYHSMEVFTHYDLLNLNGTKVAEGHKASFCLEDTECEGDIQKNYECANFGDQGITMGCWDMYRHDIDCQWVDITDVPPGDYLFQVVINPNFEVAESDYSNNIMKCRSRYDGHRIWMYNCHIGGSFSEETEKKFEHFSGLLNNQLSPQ
Protocol: Example B-1: Human LOXL2 Amine Oxidase Activity Assay
LOXL2 amine oxidase activity is evaluated by measuring Amplex Red fluorescence using 10-20× concentrated conditioned media from CHO cells stably expressing human LOXL2. To assay for amine oxidase activity, 10 μL of the concentrated conditioned media is incubated with 2 μL of test compound in DMSO and 73 μL Assay Buffer (50 mM Borate Buffer, pH8) for 2 h at 37° C. After the 2 h incubation, 5 μl of 10 mM 1,5-Diaminopentane (DAP) diluted in Assay Buffer and 10 μl of Amplex Red Mix (8.5 μl Assay Buffer+0.5 μl of 10 mM Amplex Red+1 μl of 500 U/ml Horseradish Peroxidase) are added and the plate mixed and immediately placed on the FlexStaion for fluorescence measurements. Fluorescence is read in kinetic mode every 2 min for 1 hour at excitation=544 and emission=590. The amine oxidase activity is calculated from the slope of the linear portion of the curve.

Row | IC50 [nM] | Compound
1 | < 300 | COc1cc2c(=O)cc(CN)oc2cc1OCc1ccccc1 [Compound 1-69, 2-(Aminomethyl)-7-(benzyloxy)-6-methoxy-4H-chromen-4-one hydrochloride]
2 | 300 to 1000 | NCc1cc(=O)c2ccc(O)cc2o1 [Compound 1-43, 2-(Aminomethyl)-7-hydroxy-4H-chromen-4-one hydrochloride]
3 | 300 to 1000 | NCc1cc(=O)c2cccc(OCc3ccccc3)c2o1 [Compound 1-54, 2-(Aminomethyl)-8-(benzyloxy)-4H-chromen-4-one hydrochloride]
4 | < 300 | NCc1cc(=O)c2ccc(Nc3cccc(C(=O)Nc4ccccc4)c3)cc2o1 [Compound 1-49, 3-((2-(Aminomethyl)-4-oxo-4H-chromen-7-yl)amino)-N-phenylbenzamide hydrochloride]
5 | < 300 | NCc1cc(=O)c2ccc(OCc3ccc4ccccc4n3)cc2o1 [Compound 1-65, 2-(Aminomethyl)-7-(quinolin-2-ylmethoxy)-4H-chromen-4-one hydrochloride]
6 | 300 to 1000 | NCc1cc(=O)c2cc(C(=O)NCCO)ccc2o1 [Compound 1-59, 2-(Aminomethyl)-N-(2-hydroxyethyl)-4-oxo-4H-chromene-6-carboxamide hydrochloride]
7 | 300 to 1000 | NCc1cc(=O)c2cccc(OCC(=O)Nc3ccccc3)c2o1 [Compound 1-57, 2-((2-(Aminomethyl)-4-oxo-4H-chromen-8-yl)oxy)-N-phenylacetamide hydrochloride]
8 | < 300 | NCc1cc(=O)c2ccc(OCc3ccc(C(F)(F)F)cc3)cc2o1 [Compound 1-62, 2-(Aminomethyl)-7-((4-(trifluoromethyl)benzyl)oxy)-4H-chromen-4-one hydrochloride]
9 | < 300 | C#CCOc1ccc2c(=O)cc(CN)oc2c1 [Compound 1-45, 2-(aminomethyl)-7-(prop-2-yn-1-yloxy)-4H-chromen-4-one hydrochloride]
10 | < 300 | NCc1cc(=O)c2ccc(N3CCN(C(=O)c4ccccc4)CC3)cc2o1 [Compound 1-41, 2-(Aminomethyl)-7-(4-benzoylpiperazin-1-yl)-4H-chromen-4-one hydrochloride]
11 | 300 to 1000 | C#CCOc1cccc2c(=O)cc(CN)oc12 [Compound 1-53, 2-(Aminomethyl)-8-(prop-2-yn-1-yloxy)-4H-chromen-4-one hydrochloride]
12 | 300 to 1000 | NCc1cc(=O)c2cc(C(=O)N3C[C@@H](O)[C@H](F)C3)ccc2o1 [Compound 1-61, 2-(Aminomethyl)-6-((3R,4R)-3-fluoro-4-hydroxypyrrolidine-1-carbonyl)-4H-chromen-4-one hydrochloride]
13 | 300 to 1000 | NCc1cc(=O)c2cccc(Br)c2o1 [Compound 1-50, 2-(Aminomethyl)-8-bromo-4H-chromen-4-one hydrochloride]
14 | > 1000 | NCc1cc(=O)c2cccc(OCc3cccc(C(=O)Nc4ccccc4)c3)c2o1 [Compound 1-58, 3-(((2-(Aminomethyl)-4-oxo-4H-chromen-8-yl)oxy)methyl)-N-phenylbenzamide hydrochloride]
15 | < 300 | NCc1cc(=O)c2ccc(OCc3cccc(C(=O)Nc4ccccc4)c3)cc2o1 [Compound 1-48, 3-(((2-(Aminomethyl)-4-oxo-4H-chromen-7-yl)oxy)methyl)-N-phenylbenzamide hydrochloride]
16 | < 300 | NCc1cc(=O)c2ccc(Oc3cccc(C(F)(F)F)c3)cc2o1 [Compound 1-67, 2-(Aminomethyl)-7-(3-(trifluoromethyl)phenoxy)-4H-chromen-4-one hydrochloride]

Second part, the compound before the results:

Row | Compound | IC50 [nM]
17 | Cn1cc(-c2ccc3c(=O)cc(CN)oc3c2)nn1 [Compound 1-39, 2-(Aminomethyl)-7-(1-methyl-1H-1,2,3-triazol-4-yl)-4H-chromen-4-one hydrochloride] | < 300
18 | NCc1cc(=O)c2cc(C(=O)NCCS(N)(=O)=O)ccc2o1 [Compound 1-22, 2-(Aminomethyl)-4-oxo-N-(2-sulfamoylethyl)-4H-chromene-6-carboxamide hydrochloride] | 300 to 1000
19 | NCc1cc(=O)c2cc(Br)ccc2o1 [Compound 1-1, 2-(Aminomethyl)-6-bromo-4H-chromen-4-one hydrochloride] | < 300
20 | NCc1cc(=O)c2cc(N3CC[C@H](O)C3)ccc2o1 [Compound 1-20, (S)-2-(Aminomethyl)-6-(3-hydroxypyrrolidin-1-yl)-4H-chromen-4-one hydrochloride] | 300 to 1000
21 | NCc1cc(=O)c2cc(-c3cn(CCO)nn3)ccc2o1 [Compound 1-16, 2-(Aminomethyl)-6-(1-(2-hydroxyethyl)-1H-1,2,3-triazol-4-yl)-4H-chromen-4-one hydrochloride] | 300 to 1000
22 | NCc1cc(=O)c2cc(-c3ccccc3)ccc2o1 [Compound 1-6, 2-(Aminomethyl)-6-phenyl-4H-chromen-4-one hydrochloride] | < 300
23 | CN(C)C(=O)COc1ccc2c(=O)cc(CN)oc2c1 [Compound 1-32, 2-((2-(Aminomethyl)-4-oxo-4H-chromen-7-yl)oxy)-N,N-dimethylacetamide hydrochloride] | 300 to 1000
24 | NCc1cc(=O)c2ccc(N3CCN(c4ccccc4)CC3)cc2o1 [Compound 1-40, 2-(Aminomethyl)-7-(4-phenylpiperazin-1-yl)-4H-chromen-4-one hydrochloride] | < 300
25 | Cn1cc(-c2ccc3oc(CN)cc(=O)c3c2)cn1 [Compound 1-12, 2-(Aminomethyl)-6-(1-methyl-1H-pyrazol-4-yl)-4H-chromen-4-one hydrochloride] | < 300
26 | NCc1cc(=O)c2cc(C(=O)NCCn3cncn3)ccc2o1 [Compound 1-21, N-(2-(1H-1,2,4-Triazol-1-yl)ethyl)-2-(aminomethyl)-4-oxo-4H-chromene-6-carboxamide hydrochloride] | 300 to 1000
27 | C=C(C)C#Cc1ccc2oc(CN)cc(=O)c2c1 [Compound 1-5, 2-(Aminomethyl)-6-(3-methylbut-3-en-1-yn-1-yl)-4H-chromen-4-one trifluoroacetate] | < 300
28 | NCc1cc(=O)c2cc(-c3cccnc3)ccc2o1 [Compound 1-8, 2-(Aminomethyl)-6-(pyridin-3-yl)-4H-chromen-4-one hydrochloride] | < 300
29 | NCc1cc(=O)c2cc(-c3cnc4ccccc4c3)ccc2o1 [Compound 1-9, 2-(Aminomethyl)-6-(quinolin-3-yl)-4H-chromen-4-one hydrochloride] | < 300
30 | COC(=O)[C@@H]1CCN(C(=O)c2ccc3oc(CN)cc(=O)c3c2)C1 [Compound 1-24, Methyl (R)-1-(2-(aminomethyl)-4-oxo-4H-chromene-6-carbonyl)pyrrolidine-3-carboxylate hydrochloride] | 300 to 1000
31 | C#Cc1ccc2oc(CN)cc(=O)c2c1 [Compound 1-3, 2-(Aminomethyl)-6-ethynyl-4H-chromen-4-one hydrochloride] | < 300
32 | NCc1cc(=O)c2cc(OCC(=O)O)ccc2o1 [Compound 1-34, 2-((2-(Aminomethyl)-4-oxo-4H-chromen-6-yl)oxy)acetic acid hydrochloride] | 300 to 1000
33 | NCc1cc(=O)c2cc(C(=O)N3CCC(C(=O)O)C3)ccc2o1 (single isomer, unassigned) [Compound 1-38, (R) or (S)-1-(2-(Aminomethyl)-4-oxo-4H-chromene-6-carbonyl)pyrrolidine-3-carboxylic Acid hydrochloride] | > 1000
34 | COc1ccc2c(=O)cc(CN)oc2c1 [Compound 1-28, 2-(Aminomethyl)-7-methoxy-4H-chromen-4-one hydrochloride] | < 300
35 | CN(C)C(=O)COc1ccc2oc(CN)cc(=O)c2c1 [Compound 1-35, 2-((2-(Aminomethyl)-4-oxo-4H-chromen-6-yl)oxy)-N,N-dimethylacetamide hydrochloride] | 300 to 1000
36 | NCc1cc(=O)c2cc(C(=O)N3CCC(C(=O)O)C3)ccc2o1 (single isomer, unassigned) [Compound 1-37, (R) or (S)-1-(2-(Aminomethyl)-4-oxo-4H-chromene-6-carbonyl)pyrrolidine-3-carboxylic Acid hydrochloride] | > 1000
